Active and inactive are the calls of the source. The calls are words filed in the database; no cut-off is given here. Bridge positions count the residues as written; N and C are the ends. Peptide text beside a SMILES is read from it.
Key:
[1] = biological target: T1, Eukaryotic translation initiation factor 4E (Homo sapiens, UniProt P06730); assay: Binding affinity to recombinant human 10His-tagged eIF4E expressed in Escherichia coli BL21 (DE3) cells assessed as association constant by surface plasmon resonance analysis
[2] = Drug uptake in cytosol of human HeLa cells stably expressing Halo-tagged-GFP assessed as normalized fluorescence in cytosol incubated for 4 hrs by flow cytometry based CAPA; type: ADME, subcellular
T47D = assay: Anti-proliferative activity against human T47D cells after 6 days by CellTiter-Glo assay; type: functional, cell-based; settings: time 6.0 day
[3] = biological target: T1, Eukaryotic translation initiation factor 4E; assay: Binding affinity to eIF4E in HEK293 cell lysates assessed as thermal stabilization of protein at 1 to 15 uM incubated for 1 hrs followed by heating at 49 to 52.4 degC for 3 mins by CETSA-based Western blot analysis; type: subcellular; settings: dose 1-15 µM
[4] = biological target: T1, Eukaryotic translation initiation factor 4E; assay: Inhibition of eIF4E in human MCF7 cells measured up to 42 hrs by m7GDP cap pull down assay; type: cell-based; settings: time hrs <=42
[5] = biological target: T2, EIF4E/EIF4G1 (Homo sapiens) (UniProt P06730+Q04637); assay: Inhibition of eIF4E/eIF4G interaction in human MDA-MB-231 cells incubated for 6 hr by m7GDP cap pull down assay; type: cell-based
[6] = biological target: T1, Eukaryotic translation initiation factor 4E; assay: Inhibition of recombinant human 10His-tagged eIF4E expressed in Escherichia coli BL21 (DE3) cells by catalytic enzyme-linked click chemistry assay
[7] = biological target: T2, EIF4E/EIF4G1 (Homo sapiens); assay: Inhibition of eIF4E/eIF4G interaction in human MCF7 cells incubated for 6 hr by m7GDP cap pull down assay; type: cell-based
[8] = biological target: T1, Eukaryotic translation initiation factor 4E; assay: Binding affinity to recombinant human 10His-tagged eIF4E expressed in Escherichia coli BL21 (DE3) cells assessed as binding constant by surface plasmon resonance analysis
[9] = biological target: T2, EIF4E/EIF4G1 (Homo sapiens); assay: Inhibition of eIF4E/eIF4G interaction in human T47D cells incubated for 6 hr by m7GDP cap pull down assay; type: cell-based
MCF7 = assay: Anti-proliferative activity against human MCF7 cells after 6 days by CellTiter-Glo assay; type: functional, cell-based; settings: time 6.0 day
MDA-MB-231 = assay: Anti-proliferative activity against human MDA-MB-231 cells after 6 days by CellTiter-Glo assay; type: functional, cell-based; settings: time 6.0 day
[10] = Drug uptake in cytosol of human HeLa cells stably expressing Halo-tagged-GFP assessed as normalized fluorescence in cytosol at 0.74 uM incubated for 4 hrs by flow cytometry based CAPA relative to control; type: ADME, subcellular

T1 sequence (P06730 whole entry): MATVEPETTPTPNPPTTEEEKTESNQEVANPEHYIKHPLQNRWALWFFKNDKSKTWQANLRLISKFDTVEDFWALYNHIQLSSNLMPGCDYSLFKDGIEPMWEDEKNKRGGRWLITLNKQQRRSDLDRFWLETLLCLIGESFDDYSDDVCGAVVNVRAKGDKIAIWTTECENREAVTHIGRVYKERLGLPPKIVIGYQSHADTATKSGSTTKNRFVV

SMILES	Ka [1] [M⁻¹ s⁻¹]	Q50 [2] [µM]	Activity (T47D)	Activity [3]	Activity [4]	inhibition [5]	IC50 [6] [nM]	inhibition [7]	Kd [8] [nM]	inhibition [9]	Activity (MCF7)	Activity (MDA-MB-231)	Drug uptake [10] [%]
CC[C@H](C)[C@H](NC(=O)[C@H](CCCNC(=N)N)NC(=O)[C@@H](NC(=O)CNC(C)=O)[C@@H](C)O)C(=O)N[C@H](C(=O)N[C@@H](Cc1ccc(O)cc1)C(=O)N[C@@H](CC(=O)O)C(=O)N[C@@H](CCCNC(=N)N)C(=O)N[C@@H](CCCCN)C(=O)N[C@@H](Cc1ccccc1)C(=O)N[C@@H](CC(C)C)C(=O)N[C@@H](CCSC)C(=O)N[C@@H](CCC(=O)O)C(=O)N[C@@H](CS)C(=O)N[C@@H](CCCNC(=N)N)C(=O)N[C@@H](CC(N)=O)C(N)=O)[C@@H](C)CC	630000	–	–	–	–	–	–	–	–	–	–	–	–
CC[C@H](C)[C@H](NC(=O)[C@H](CCCNC(=N)N)NC(C)=O)C(=O)N[C@H](C(=O)N[C@@H](Cc1ccc(O)cc1)C(=O)N[C@@H](CC(=O)O)C(=O)N[C@@H](CCCNC(=N)N)C(=O)N[C@H]1CCC(=O)NCCCC[C@@H](C(=O)N[C@@H](CS)C(=O)N[C@@H](CCCNC(=N)N)C(N)=O)NC(=O)[C@H](CCSC)NC(=O)[C@H](CC(C)C)NC(=O)[C@H](Cc2ccccc2)NC1=O)[C@@H](C)CC (Ac-RIIYDREFLMKCR-NH2; lactam 7-11)	3.1e+06	1.5	inactive	Active	Active	Dose-dependent effect	6.5	Dose-dependent effect	2.2	Dose-dependent effect	inactive	inactive	20
CC[C@H](C)[C@H](NC(=O)[C@H](CCCNC(=N)N)NC(C)=O)C(=O)N[C@H](C(=O)N[C@@H](Cc1ccc(O)cc1)C(=O)N[C@@H](CC(=O)O)C(=O)N[C@@H](CCCNC(=N)N)C(=O)N[C@H]1CCCCNC(=O)CC[C@@H](C(=O)N[C@@H](CS)C(=O)N[C@@H](CCCNC(=N)N)C(N)=O)NC(=O)[C@H](CCSC)NC(=O)[C@H](CC(C)C)NC(=O)[C@H](Cc2ccccc2)NC1=O)[C@@H](C)CC (Ac-RIIYDRKFLMECR-NH2; lactam 7-11)	580000	0.25	–	inactive	–	–	22	–	7.2	–	–	–	84

Reference: ChEMBL document CHEMBL4765410, “A cell-penetrant lactam-stapled peptide for targeting eIF4E protein-protein interactions” (Eur J Med Chem, 2020)
